# Laboratory results: PMC6749236, “Synthesis of Novel 2-(Het)arylpyrrolidine Derivatives and Evaluation of Their Anticancer and Anti-Biofilm Activity” (Molecules, 2019)
# Where “and” joins values, the source holds several entries; their conditions need not be identical. Equal values may be shown once. Marks after values point to notes of the source that are not given here.
# What was measured:
# [1] = tested on: E. coli MG1655 (pSoxS-lux); assay: Prooxidant activity, bacterial lux-biosensor; assay type: cell-based, Escherichia coli
# Description: (§1) E. coli MG1655 (pRecA-lux) was used for the evaluation of the genotoxicity of the synthesized compounds. The biosensor with the PrecA promotor fixes the presence of the factors causing damage of DNA in a cell. The biosensor E. coli MG1655 (pSoxS-lux) was used for the evaluation of prooxidant activity. The biosensor with the PsoxS promoter fixes the production of superoxide anion and NO [75]. Bioluminescent strains were obtained by the transformation of E. coli MG1655 by hybrid plasmids pRecA-lux, pSoxS-lux. The gene cassette luxCDABE Photorhabdus luminescens under the control PrecA promoters was used in this biosensor. This plasmid was created on the basis of pBR322 and contained a selective marker of ampicillin resistance (Amp gene). The strains were kindly furnished by Manukhov I.V., Federal State Unitary Enterprise “GosNIIGenetika”).
# (§2) The bacterial strains Acinetobacter calcoaceticus VKPM B-10353, E. coli MG1655 (pRecA-lux), and E. coli MG1655 (pSoxS-lux) were cultivated in Luria–Bertani (LB) medium under constant shaking to early exponential phase at 37 °C. Cells were used immediately for stress induction tests. One hundred micrograms of ampicillin per milliliter were added into LB medium at cultivation of E. coli MG1655 (pRecA-lux) and E. coli MG1655 (pSoxS-lux). Strain V. aquamarinus DSM 26054 was grown in LB medium supplemented with 3% NaCl.
# (§3) Biosensors assay procedure. The detailed protocol of toxicity testing by means of a bacterial lux-biosensors is described in the article.
# (§4) Calculation. The criterion of toxic influence was bioluminescence intensity change of the test object in the researched sample in comparison with the control sample.
# (§5) The induction factor (I) was defined as the relation of luminescence intensity of a lux-biosensor suspension containing tested sample (Lc) to the luminescence intensity of a lux-biosensor control suspension (Lk): I = Lc/Lk.
# (§6) Difference reliability of bioluminescence in experiment from control value was estimated by t-criterion with the help of Excel software. The conclusions about sample toxicity were made at p < 0.05.
# [2] = tested on: Acinetobacter calcoaceticus VKPM B-10353; assay: Biofilm formation, crystal violet assay; assay type: cell-based; conditions: A. calcoaceticus VKPM B-10353; for Biofilm Formation: control = 100%
# Method: (§7) Bacterial strains and cultivation conditions. For the detection of biofilms, formation strains Vibrio aquamarinus DSM 26054 and Acinetobacter calcoaceticus VKPM B-10353 were used. These strains form biofilms, making them useful for studying biofilms.
# as §2
# (§8) The test compounds were dissolved in DMSO to the concentration of 1 × 10^−2 M. Then, they were diluted with ethanol. The control solutions were analogous dilutions of DMSO in ethanol. The tested compounds were also compared with the standard antibiotic azithromycin. Azithromycin was dissolved in DMSO to the concentration of 5 × 10^−3 M and then diluted with deionized water.
# (§9) Test system for evaluation of biofilms production. To quantify the formation of biofilms, the crystal violet assay was used, with some modifications. The necessary concentrations of the test compounds were prepared as described above.
# (§10) V. aquamarinus DSM 26054 was cultivated for 24 h in LB medium supplemented with 3% NaCl in the Innova 40R shaker incubator (New Brunswick Scientific, USA) at 25 °C and 200 rpm. A. calcoaceticus VKPM B-10353 was cultivated for 24 h in LB medium in the Innova 40R shaker incubator (New Brunswick Scientific, Enfield, CT, USA) at 30 °C and 200 rpm. Then, the suspensions of the daily culture of V. aquamarinus DSM 26054 and A. calcoaceticus VKPM B-10353 were diluted with LB medium supplemented with 3% NaCl to the density of 1 × 10^8 cells/mL.
# (§11) The resulting suspension (180 μL) was added to the wells of a polystyrene microplate (Nuova Aptaca, Canelli, Italy). To some of the wells, 20 μL of the test substances at various concentrations were added. Since solvents used could also influence the biofilm formation, 20 μL of the appropriate solvent was added to the other part of the wells at same dilutions (control). Six replicates were done for each treatment and control. The microplate was covered with a lid and wrapped with Parafilm (Bemis Company, Inc., Oshkosh, WI, USA).
# (§12) After incubation at 25 °C for 72 h, biofilms were stained. The contents in the wells were removed by means of a dispenser. The wells were then carefully washed three times with 250 μL of sterile saline. The microplates were shaken to remove all non-adherent bacteria. Biofilms were fixed with 200 μL of 96% ethanol for 15 min. After the microplates had dried in air, 200 μL of 0.5% crystal violet was introduced into the wells. After 10 min, the dye was removed. The excess dye was removed by washing with water three times. After the microplates were air-dried, the dye in the wells bound to biofilms was dissolved with 200 μL of 96% ethanol. The extraction level (absorption) of crystal violet by ethanol was measured after 60 minutes at a wavelength of 570 nm using a FLUOstar Omega microplate reader (BMG Labtech, Offenburg, Germany) in optical density units (OD570). The intensity of biofilm formation directly corresponds to the intensity of staining of the contents of the wells with the dye. Biofilm formation was determined by the difference between the mean OD readings obtained in the presence of compounds and the control.
# (§13) Each experiment was performed in triplicate. The values were expressed as mean + SD. Student’s t-test was used to compare these values. Differences were considered statistically significant at p < 0.05.
# [3] = tested on: Vibrio aquamarinus DSM 26054; assay: Biofilm formation, crystal violet assay; assay type: cell-based; conditions: V. aquamarinus DSM 26054, control = 100%
# Method: as §7, §2, §8, §9, §10, §11, §12, §13
# M-Hela = assay: Cytotoxicity assay (Cytell Cell Imaging, DAPI/propidium iodide), cancer cell line; assay type: cell-based; conditions: Homo sapiens; M-Hela; tested at 1–100 µM; three independent experiments; read-out: IC50 Cancer Cell Line M-Hela
# Chang liver cell line = assay: Cytotoxicity assay (Cytell Cell Imaging), normal cell line; assay type: cell-based; conditions: Homo sapiens, tested at 1–100 µM, three independent experiments, read-out: IC50 Normal Cell Line Chang Liver
# [4] = tested on: Escherichia coli MG1655 (pRecA-lux); assay: Genotoxicity, bacterial lux-biosensor; assay type: cell-based
# Description: as §1, §2, §3, §4, §5
# If at significant differences from control induction factor values were ≤2, the detected genotoxic effect was evaluated as “weak”, if they were in the range from 2 to 10 as “medium”, and above 10 as “strong”. All the experiments were carried out three times independently.
# as §6
# [5] = concentration range of 10^−9–10^−5 M
# [6] = with metabolic activation (+S9), 10^−5 M
# [7] = with metabolic activation (+S9), 10^−6 M
# [8] = with metabolic activation (+S9), 10^−7 M
# [9] = with metabolic activation (+S9), 10^−8 M
# [10] = with metabolic activation (+S9), 10^−9 M
# [11] = without metabolic activation (-S9), 10^−5 M
# [12] = without metabolic activation (-S9), 10^−6 M
# [13] = without metabolic activation (-S9), 10^−7 M
# [14] = without metabolic activation (-S9), 10^−8 M
# [15] = without metabolic activation (-S9), 10^−9 M
SMILES,Prooxidant activity (induction factor) ([1]; 10^−5 M),Prooxidant activity (induction factor) ([1]; 10^−6 M),Prooxidant activity (induction factor) ([1]; 10^−7 M),Prooxidant activity (induction factor) ([1]; 10^−8 M),Prooxidant activity (induction factor) ([1]; 10^−9 M),Biofilm Formation ([2]; 1 × 10^−5 M),Biofilm Formation ([2]; 1 × 10^−6 M),Biofilm Formation ([2]; 1 × 10^−7 M),Biofilm Formation ([2]; 1 × 10^−8 M),Biofilm Formation ([2]; 1 × 10^−9 M) [%],Biofilm Formation ([3]; 1 × 10^−5 M),Biofilm Formation ([3]; 1 × 10^−6 M),Biofilm Formation ([3]; 1 × 10^−7 M),Biofilm Formation ([3]; 1 × 10^−8 M),Biofilm Formation ([3]; 1 × 10^−9 M),IC50 (M-Hela) [µM],IC50 (Chang liver cell line) [µM],"detected genotoxic effect, class [4, 5]","Genotoxicity (induction factor, I) [4, 6]","Genotoxicity (induction factor, I) [4, 7]",other results
"O=C(Nc1ccccc1)N1CCCC1c1ccc(Nc2c([N+](=O)[O-])c(Cl)cc3c2no[n+]3[O-])cc1O (stereo not drawn) [6b, 6-Chloro-4-((3-hydroxy-4-(1-(phenylcarbamoyl)pyrrolidin-2-yl)phenyl)amino)-5-nitrobenzo[c][1,2,5]oxadiazole 1-oxide]",0.89 ± 0.03,1.24 ± 0.11,1.04 ± 0.04,1.21 ± 0.00,1.03 ± 0.10,119.69 * %,88.44%,73.93 * %,70.79 * %,90.41,89.12%,39.02 * %,26.04 * %,15.42 * %,8.21 * %,56 ± 4.1,> 100,medium (in the range from 2 to 10),1.23 ± 0.02,1.36 ± 0.04,"prooxidant activity, in words ([1]; 10^−9–10^−5 M): did not possess prooxidant activity; Biofilm formation with respect to control, over the investigated concentrations ([2]; 1 × 10^−9–1 × 10^−5 M): both suppressing and stimulating; detected genotoxic effect, class ([4]; concentration of 10^−5 M): weak (induction factor values were ≤2); Genotoxicity (induction factor, I) [4, 8]: 1.30 ± 0.02; Genotoxicity (induction factor, I) [4, 9]: 1.31 ± 0.01; Genotoxicity (induction factor, I) [4, 10]: 1.47 ± 0.04; Genotoxicity (induction factor, I) [4, 11]: 1.77 ± 0.04; Genotoxicity (induction factor, I) [4, 12]: 2.15 ± 0.06; Genotoxicity (induction factor, I) [4, 13]: 2.07 ± 0.11; Genotoxicity (induction factor, I) [4, 14]: 2.28 ± 0.12; Genotoxicity (induction factor, I) [4, 15]: 2.34 ± 0.06; melting point: 165 to 170 °C (dec.)"
"COc1ccc(NC(=O)N2CCCC2c2ccc(Nc3c([N+](=O)[O-])c(Cl)cc4c3no[n+]4[O-])cc2O)cc1 (stereo not drawn) [6c, 6-Chloro-4-((3-hydroxy-4-(1-((4-methoxyphenyl)carbamoyl)pyrrolidin-2-yl)phenyl)amino)-5-nitrobenzo[c][1,2,5]oxadiazole 1-oxide]",0.96 ± 0.09,1.46 ± 0.03,1.68 ± 0.20,1.54 ± 0.20,1.11 ± 0.03,82.82%,79.31 * %,72.77 * %,55.74 * %,93.75,26.65 * %,18.28 * %,9.22% and 9.22 * %,14.67 * %,13.54% and 13.54 * %,26 ± 1.9,62 ± 4.3,medium (in the range from 2 to 10),1.35 ± 0.02,1.54 ± 0.03,"prooxidant response, in words ([1]; 10^−8–10^−7 M): weak response; genotoxicity under conditions of metabolic activation, in words ([4]; +S9, concentration range of 10^−7–10^−6 M): registered; Genotoxicity (induction factor, I) [4, 8]: 1.49 ± 0.02; Genotoxicity (induction factor, I) [4, 9]: 1.37 ± 0.02; Genotoxicity (induction factor, I) [4, 10]: 1.30 ± 0.01; Genotoxicity (induction factor, I) [4, 11]: 2.33 ± 0.04; Genotoxicity (induction factor, I) [4, 12]: 2.82 ± 0.05; Genotoxicity (induction factor, I) [4, 13]: 2.64 ± 0.14; Genotoxicity (induction factor, I) [4, 14]: 2.84 ± 0.02; Genotoxicity (induction factor, I) [4, 15]: 2.67 ± 0.07; melting point: 196 to 202 °C (dec.)"
